Laboratory results reported in article PMC7794397, “Curbing gastrointestinal infections by defensin fragment modifications without harming commensal microbiota” (Communications Biology, 2021).
≈ marks a conversion by molar mass, not a printed value. Positions of bridges follow the written chain, without caps; N, C: chain ends. Non-standard residues stand in square brackets, D forms with d. Residues, ends and D or L forms follow the SMILES beside them. *: point of attachment. Palmitoyl = CCCCCCCCCCCCCCCC(=O)*; X3 = CC[C@H](C)CCCCC(=O)*; Dab = NCC[C@H](N)C(=O)O

Experiments:
A. baumannii = assay: Antibiogram of ESKAPE pathogens; format: cell-based; settings: column assigned by order in flattened table
Description: (§1) Supplementary Table 1. Antibiogram of ESKAPE pathogens used in this study.
(§2) Bacteria susceptible to all (blue color) or intermediate/resistant to at least one (red color) of antibiotics per class following the EUCAST breakpoints. Black color is shown if the susceptibility to agents in that class is not assessed. Values are minimal inhibition concentrations (MIC) in µg/ml or for Chloramphenicol in diameter (mm). […]

E. coli = assay: Antibiogram of ESKAPE pathogens; format: cell-based; settings: column assigned by order in flattened table; for MIC: Escherichia coli
Description: as §1, §2

K. pneumoniae = settings: one K. pneumoniae strain, which one not assignable
Description: as §1, §2

ESKAPE pathogens = assay: organism not typed; settings: one strain of A. baumannii, P. aeruginosa or E. coli, not assignable
Description: as §1, §2

S. Typhimurium = format: cell-based; settings: radial diffusion assay
Method: (§3) Antimicrobial activity was analyzed by radial diffusion assay. Log-phase bacteria were cultivated for up to 18 h in TSB (TSB, Becton Dickinson, USA), washed and diluted to 4 × 10^6 CFU in 10 ml agar. Bacteria were incubated in 10 ml of 10 mM sodium phosphate, pH 7.4, containing 0.3 mg/ml of TSB powder and 1% (w/v) low EEO-agarose (AppliChem). 1 µg of each lipopeptide was pipetted into punched wells in a final volume of 4 µl and diffused into the gel for 3 h at 37 °C. After that, a nutrient-rich gel with 6% TSB (w/v) and 1% agarose in 10 mM sodium phosphate buffer was poured on top of the first gel and incubated for up to 24 h at 37 °C. Then the diameter of inhibition zones was measured.

[1] = test system: A. baumannii DSM30007 4-MRGN
Method: Bactericidal activity was assessed by broth microdilution assay. Log-phase bacteria were collected by centrifugation (2500 rpm, 10 min, 4 °C), washed twice with 10 mM sodium phosphate buffer containing 1% (w/v) TSB and the optical density at 600 nm was adjusted to 0.1. Approximately 5 × 10^5 CFU/ml bacteria were incubated with serial peptide concentrations (1.17–150 µM) in a final volume of 100 µl in 10 mM sodium phosphate buffer containing 1% (w/v) TSB for 2 h at 37 °C. After incubation, 100 µl of 6% TSB (w/v) were added and absorbance was measured at 600 nm (Tecan, Switzerland) and monitored for 18 h. Afterward, 100 µl per well were plated on LB agar to determine the numbers of viable bacteria microbiologically. Bactericidal activity is expressed as the LC99.9, the lowest concentration that killed ≥99.9 % of bacteria.

[2] = test system: multidrug resistant bacteria belonging to the ESKAPE pathogen panel; format: cell-based; settings: broth microdilution, ESKAPE panel
Method: Bactericidal activity was assessed by broth microdilution assay. […] After incubation, 100 µl of 6% TSB (w/v) were added and absorbance was measured at 600 nm (Tecan, Switzerland) and monitored for 18 h. Afterward, 100 µl per well were plated on LB agar to determine the numbers of viable bacteria microbiologically. Bactericidal activity is expressed as the LC99.9, the lowest concentration that killed ≥99.9 % of bacteria.

[3] = test system: several pathogenic bacteria; assay: Radial diffusion assay, all tested strains; format: cell-based
Method: as §3

CC(C)(O/N=C(\C(=O)N[C@@H]1C(=O)N2C(C(=O)[O-])=C(C[n+]3ccccc3)CS[C@H]12)c1csc(N)n1)C(=O)O [Ceftazidim]
MIC (antibiogram) (A. baumannii; strain DSM30007): ≥ 64 µg/mL
MIC (antibiogram) (E. coli; strain DSM682): ≥ 64 µg/mL
MIC (antibiogram) (E. coli; strain DSM8695): ≤ 1 µg/mL

CC[C@H](C)CCCCC(=O)N[C@@H](CCN)C(=O)N[C@H](C(=O)N[C@@H](CCN)C(=O)N[C@H]1CCNC(=O)[C@H]([C@@H](C)O)NC(=O)[C@H](CCN)NC(=O)[C@H](CCN)NC(=O)[C@H](CC(C)C)NC(=O)[C@@H](CC(C)C)NC(=O)[C@H](CCN)NC1=O)[C@@H](C)O [Colistin] (X3-[Dab]T[Dab][Dab][Dab][dL]L[Dab][Dab]T; lactam 4-C (inferred); N-terminus assumed)
MIC (antibiogram) (K. pneumoniae): 0.25 µg/mL (≈ 0.214 µM)
MIC (antibiogram) (ESKAPE pathogens): 1 µg/mL (≈ 0.855 µM)

CCCCCCCCCCCCCCCC(=O)N[C@@H](CCCNC(=N)N)C(=O)NCC(=O)N[C@@H](CCCCN)C(=O)N[C@@H](C)C(=O)N[C@@H](CCCCN)C(=O)N[C@@H](CS)C(=O)N[C@@H](CS)C(=O)N[C@@H](CCCCN)C(=O)O [Pam-2] (Palmitoyl-RGKAKCCK-OH; C-terminus assumed)
inhibition of S. Typhimurium growth (in words) (S. Typhimurium): consistently inhibited
growth inhibition of colistin- and tigecycline-resistant isolate (in words) [1]: inhibited the growth
bactericidal activity (in words) [2]: highly effective
antimicrobial activity (in words) [3]: potent inhibition

CN(C)c1cc(NC(=O)CNC(C)(C)C)c(O)c2c1C[C@H]1C[C@H]3[C@H](N(C)C)C(O)=C(C(N)=O)C(=O)[C@@]3(O)C(O)=C1C2=O [Tigecycline]
MIC (A. baumannii; Acinetobacter baumannii, strain ECII): 4 µg/mL (≈ 6.83 µM)
MIC (E. coli; strain DSM682): ≤ 0.5 µg/mL
MIC (E. coli; strain DSM8695): ≤ 0.5 µg/mL
